Measurements taken from patent US20200147116A1, “Use of Paeoniflorin-6'-O-benzenesulfonate in treatment of Sjögren's syndrome” (NINGBO ZHIMING BIOTECHNOLOGY CO., LTD., priority 2017, published 2020).
Several values for one entry are separate records, joined by “and”; a condition that tells them apart may be missing. Identical values can stand only once. Marks after values point to notes of the source that are not given here.

Columns and labels:
Format in all cases: in vivo
[1] = system: Sjögren's syndrome model mice (C57BL/6 female mice); test: Saliva amount in induced Sjögren's syndrome model mice (wet weight method after pilocarpine); conditions: for Saliva amount in SS mice, Pre-administration / Saliva amount, Pre-administration: baseline before administration; for Saliva amount, One week after: one week of administration; for Curative effect judged on saliva amount after one week of medication: high dose of CP-25, TGP, Pae, HCQ at the doses of Table 3
Description: […] Water intake, saliva amount and submaxillary gland pathological analysis and score were determined respectively, on the day before administration, the 7th day and 14th day after administration. The therapeutic effects of CP-25 on Sjögren's syndrome were evaluated by comparison of changes of each index before and after treatment. 2 Sjögren's syndrome model mice: C57BL/6 female mice housed in a SPF environment with successful modeling (The animal model was made via repeated multi-point intracutaneous injection of submaxillary gland homogenate of homologous mice to tail and back of mice). The animal model was made via repeated multi-point intracutaneously injection of submaxillary gland homogenate of homologous mice to tail and back of mice, and the mice with successful modeling were randomly assigned to each group according to comprehensive conditions of mice. At the same time, the average weight and status of each group of mice should be as close as possible. […] […] High dose of said pharmaceutical should be incubated for half an hour before use. Before measurement, mice were anesthetized via intraperitoneal injection of 0.05 ml of 2.4% pentobarbital sodium, and the satisfactory anesthesia was smooth breathing, corneal reflex disappearance and limb muscle relaxation. After complete anesthesia, a mouse was placed in slightly tilted trendelenburg position, and its body was kept warm using the heater. The mouse was injected intraperitoneally with 0.1 ml of 0.025 mg/ml Pilocarpine, and 5 min later, a weighed cotton ball was placed in the mouth of the mouse for 10 min. After taking the ball out, the saliva weight of mice was measured by the wet weight method.

NOD mice = test: Saliva amount in NOD mice; conditions: NOD mice; for Saliva amount in NOD mice, Pre-administration: baseline before administration
Description: Before measurement, mice were anesthetized via intraperitoneal injection of 0.05 ml of 2.4% pentobarbital sodium, and the satisfactory anesthesia was smooth breathing, corneal reflex disappearance and limb muscle relaxation. After complete anesthesia, a mouse was placed in slightly tilted trendelenburg position, and its body was kept warm using the heater. The mouse was injected intraperitoneally with 0.1 ml of 0.025 mg/ml Pilocarpine, and 5 min later, a weighed cotton ball was placed in the mouth of the mouse for 10 min. After taking the ball out, the saliva weight of mice was measured by the wet weight method.
Therapeutic effects of on Sjögren's syndrome CP-25 in NOD mice.

[2] = system: submaxillary glands in NOD mice; test: Pathological grading of submaxillary glands in NOD mice; conditions: NOD mice
Description: (§1) Mice were sacrificed after two weeks of administration, and then submaxillary glands of four mice of each group were removed and pathologically observed. At first, the submaxillary gland should be fixed in 10% buffered formalin for 24 h, followed by washing, dehydration and clearing, wax-filling, embedding, sectioning and finally H&E staining. […] Results were graded pathologically.
(§2) Note: The histological findings graded of submaxillary glands according to the Chisholm-Mason scale; grade 0, absence of lymphocytic infiltration; grade I, slight lymphocytic infiltration; grade II, moderate lymphocytic infiltration; grade III, one focus of lymphocytic infiltration per 4 mm^2 tissue; grade IV, more than one focus of lymphocytic infiltration per 4 mm^2 tissue (Note: One focus of lymphocytic infiltration has been defined as an aggregate of 50 or more lymphocytes gathered in the labial gland stroma per 4 mm^2 of tissue.

[3] = system: submaxillary gland in SS mice; test: Histopathological examination and grading of submaxillary gland in SS mice (H&E, Chisholm-Mason scale); conditions: two weeks of administration, four mice of each group
Description: as §1, §2

SS mice = test: Organic indexes (spleen, submaxillary gland, thymus) in SS mice; conditions: 70 mg/kg
Text: 2 Sjögren's syndrome model mice: C57BL/6 female mice housed in a SPF environment with successful modeling (The animal model was made via repeated multi-point intracutaneous injection of submaxillary gland homogenate of homologous mice to tail and back of mice). The animal model was made via repeated multi-point intracutaneously injection of submaxillary gland homogenate of homologous mice to tail and back of mice, and the mice with successful modeling were randomly assigned to each group according to comprehensive conditions of mice. At the same time, the average weight and status of each group of mice should be as close as possible. Paeoniflorin-6′-O-benzenesulfonate, white crystalline powder, purity 98.5%, was dissolved in trace ethanol (75 mg of CP-25 was soluble in 40 μl of ethanol), and then sodium carboxymethylcellulose was added to formulate a suspension of CP-25. Corresponding dose gradient, low dose (17.5 mg/kg), medium dose (35 mg/kg) and high dose (70 mg/kg) of said pharmaceutical should be prepared before medication, stored in 4° C. refrigerator for use. High dose of said pharmaceutical should be incubated for half an hour before use.

NOD model mice = test: Organic indexes (spleen, submaxillary gland, thymus) in NOD model mice; conditions: 70 mg/kg

## CCN(CCO)CCCC(C)Nc1ccnc2cc(Cl)ccc12 (stereo not shown) [HCQ, hydroxychloroquine, reference compound]
[1]; Example 1, C57BL/6 SS mice, 80 mg/kg
  Saliva amount in SS mice, One week after administration: 18.17 ± 3.65 mg/each mouse/10 min
[1]; Example 1, C57BL/6 SS mice, dose group 80 mg/kg
  Saliva amount in SS mice, Pre-administration: 23.17 ± 2.79 mg/each mouse/10 min
[1]; SS model mice, 80 mg/kg
  Saliva amount, One week after: 18.17 ± 3.65 mg/10 min
[1]; SS model mice, dose group 80 mg/kg
  Saliva amount, Pre-administration: 23.17 ± 2.79 mg/10 min
[1]; SS model mice
  Curative effect judged on saliva amount after one week of medication: did not show apparent effect
NOD mice; 80 mg/kg
  Saliva amount in NOD mice, One week after administration: 17.00 ± 1.61 mg/each mouse/10 min
  Saliva amount in NOD mice, Two weeks after administration: 17.00 ± 1.41 mg/each mouse/10 min
NOD mice; dose group 80 mg/kg
  Saliva amount in NOD mice, Pre-administration: 19.17 ± 3.18 mg/each mouse/10 min
[2]; 80 mg/kg
  Score: mice with submaxillary gland pathology Grade 0: 0
  Score: mice with submaxillary gland pathology Grade I: 0
  Score: mice with submaxillary gland pathology Grade II: 0
  Score: mice with submaxillary gland pathology Grade III: 3
  Score: mice with submaxillary gland pathology Grade IV: 1 ^#
[3]; 80 mg/kg
  Score: mice with submaxillary gland pathology Grade 0: 0
  Score: mice with submaxillary gland pathology Grade I: 0
  Score: mice with submaxillary gland pathology Grade II: 0
  Score: mice with submaxillary gland pathology Grade III: 3
  Score: mice with submaxillary gland pathology Grade IV: 1^#

## C[C@@]12C[C@@]3(O)O[C@@H](O1)[C@]1(COC(=O)c4ccccc4)[C@H]3C[C@@]12O[C@@H]1O[C@H](CO)[C@@H](O)[C@H](O)[C@H]1O [Pae, Paeoniflorin]
[1]; Example 1, C57BL/6 SS mice, 70 mg/kg
  Saliva amount in SS mice, One week after administration: 17.01 ± 2.10 mg/each mouse/10 min
[1]; Example 1, C57BL/6 SS mice, 70 mg/kg, two weeks
  Saliva amount in SS mice, Two weeks after administration: 17.17 ± 2.72^ mg/each mouse/10 min
[1]; Example 1, C57BL/6 SS mice, dose group 70 mg/kg
  Saliva amount in SS mice, Pre-administration: 23.50 ± 2.89 mg/each mouse/10 min
[1]; SS model mice, 70 mg/kg
  Saliva amount, One week after: 17.01 ± 2.10 mg/10 min
[1]; SS model mice, 70 mg/kg, two weeks of administration
  Saliva amount, Two weeks after: 17.17 ± 2.72^ mg/10 min
[1]; SS model mice, dose group 70 mg/kg
  Saliva amount, Pre-administration: 23.50 ± 2.89 mg/10 min
[1]; SS model mice
  Curative effect judged on saliva amount after one week of medication: did not show apparent effect
NOD mice; 70 mg/kg
  Saliva amount in NOD mice, One week after administration: 15.40 ± 1.62 mg/each mouse/10 min
  Saliva amount in NOD mice, Two weeks after administration: 14.75 ± 1.25 mg/each mouse/10 min
NOD mice; dose group 70 mg/kg
  Saliva amount in NOD mice, Pre-administration: 19.83 ± 1.94 mg/each mouse/10 min
[2]; 70 mg/kg
  Score: mice with submaxillary gland pathology Grade 0: 0
  Score: mice with submaxillary gland pathology Grade I: 0
  Score: mice with submaxillary gland pathology Grade II: 0
  Score: mice with submaxillary gland pathology Grade III: 1
  Score: mice with submaxillary gland pathology Grade IV: 3
[3]; 70 mg/kg
  Score: mice with submaxillary gland pathology Grade 0: 0
  Score: mice with submaxillary gland pathology Grade I: 0
  Score: mice with submaxillary gland pathology Grade II: 0
[3]; 70 mg/kg, 70 mg/kg
  Score: mice with submaxillary gland pathology Grade III: 2 and 1
SS mice
  Spleen index: 9.15 ± 1.44 mg/g
  Submaxillary gland index: 3.71 ± 0.68 mg/g
  Thymus index: 0.85 ± 0.23 mg/g
NOD model mice
  Spleen index: 5.3 ± 0.5 mg/g
  Submaxillary gland index: 4.5 ± 0.5^ mg/g
  Thymus index: 1.0 ± 0.1 mg/g
